According to PubChem BioAssay AID256 (DTP/NCI, 2004):
Values joined by “and” are separate entries in the source; they are usually repeats but may differ in a detail not shown here. Equal entries are not always repeated. Toxic doses and inconclusive results are not listed. The calls were made as follows: active = survival T/C of 150% or more; inactive = T/C below 125% in these data.

Test system: CD2F1 mice, L1210 leukemia ip, survival T/C
Experiment: NCI In Vivo Anticancer Drug Screen. Data for tumor model L1210 Leukemia (intraperitoneal) in CD2F1 (CDF1) mice
Details: higher = longer survival
How it was run: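 Ratio T/C, where T is the treated-group value and C the vehicle-dosed control value, from mice implanted with a transplantable tumor.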

[1] = endpoint: mean survival time, dose: 100.0 mg/kg/injection, schedule: Q01DX009 (ip), vehicle: saline with Tween-80
[2] = endpoint: mean survival time, dose: 200.0 mg/kg/injection, schedule: Q01DX009 (ip), vehicle: saline with Tween-80
[3] = endpoint: mean survival time, dose: 100.0 mg/kg/injection, schedule: Q01DX001 (ip), vehicle: saline with Tween-80
[4] = endpoint: mean survival time, dose: 200.0 mg/kg/injection, schedule: Q01DX001 (ip), vehicle: saline with Tween-80
[5] = endpoint: mean survival time, dose: 400.0 mg/kg/injection, schedule: Q01DX001 (ip), vehicle: saline with Tween-80
[6] = endpoint: mean survival time, dose: 400.0 mg/kg/injection, schedule: Q01DX009 (ip), vehicle: saline with Tween-80

Measured: T/C

OC(c1ccccc1Cl)C(Cl)(Cl)Cl (configuration not stated)
inactive: endpoint: mean survival time, dose: 50.0 mg/kg/injection, schedule: Q01DX009 (ip), vehicle: Klucel (hydroxypropylcellulose) (HPC) 96 % of control | endpoint: mean survival time, dose: 100.0 mg/kg/injection, schedule: Q01DX009 (ip), vehicle: Klucel (hydroxypropylcellulose) (HPC) 93 % of control | endpoint: mean survival time, dose: 200.0 mg/kg/injection, schedule: Q01DX009 (ip), vehicle: Klucel (hydroxypropylcellulose) (HPC) 104 % of control

COc1cc(Cl)ccc1NC(=O)Oc1ccc(C)cc1[N+](=O)[O-]
inactive: endpoint: mean survival time, dose: 5.0 mg/kg/injection, schedule: Q01DX009 (ip), vehicle: saline with Tween-80 93 % of control | [1] 96 % of control | [2] 96 % of control

CC1(COCCOCC2(C)CO2)CO1 (configuration not stated)
inactive: endpoint: mean survival time, dose: 100.0 mg/kg/injection, schedule: Q01DX009 (ip), vehicle: saline 111 % of control | endpoint: mean survival time, dose: 200.0 mg/kg/injection, schedule: Q01DX009 (ip), vehicle: saline 114 % of control | endpoint: mean survival time, dose: 264.0 mg/kg/injection, schedule: Q04DX003 (ip), vehicle: saline 116 % of control | endpoint: mean survival time, dose: 400.0 mg/kg/injection, schedule: Q04DX003 (ip), vehicle: saline 113 % of control | endpoint: mean survival time, dose: 600.0 mg/kg/injection, schedule: Q04DX003 (ip), vehicle: saline 121 % of control

C/C([O-])=N\[N+](C)(C)Cc1ccccc1
inactive: [3] 95 % of control | [4] 98 % of control | [5] 102 % of control

CC[N+](CC)(CC)CC
inactive: endpoint: mean survival time, dose: 0.37 mg/kg/injection, schedule: Q01DX009 (ip), vehicle: saline with Tween-80 110 % of control | endpoint: mean survival time, dose: 0.75 mg/kg/injection, schedule: Q01DX009 (ip), vehicle: saline with Tween-80 96 % of control | endpoint: mean survival time, dose: 1.5 mg/kg/injection, schedule: Q01DX009 (ip), vehicle: saline with Tween-80 96 % of control | endpoint: mean survival time, dose: 3.0 mg/kg/injection, schedule: Q01DX009 (ip), vehicle: saline with Tween-80 100 % of control | endpoint: mean survival time, dose: 6.0 mg/kg/injection, schedule: Q01DX009 (ip), vehicle: saline with Tween-80 110 % of control | endpoint: mean survival time, dose: 6.25 mg/kg/injection, schedule: Q04DX003 (ip), vehicle: saline with Tween-80 100 % of control | endpoint: mean survival time, dose: 12.0 mg/kg/injection, schedule: Q01DX009 (ip), vehicle: saline with Tween-80 96 % of control | endpoint: mean survival time, dose: 12.5 mg/kg/injection, schedule: Q01DX009 (ip), vehicle: saline with Tween-80 88 % of control | endpoint: mean survival time, dose: 12.5 mg/kg/injection, schedule: Q04DX003 (ip), vehicle: saline with Tween-80 100 % of control

O=C1C(Cl)=C(NCc2ccccc2Cl)C(=O)c2ccccc21
inactive: endpoint: mean survival time, dose: 12.5 mg/kg/injection, schedule: Q01DX001 (ip), vehicle: saline with Tween-80 108 % of control | endpoint: mean survival time, dose: 25.0 mg/kg/injection, schedule: Q01DX001 (ip), vehicle: saline with Tween-80 108 % of control

Cc1c(C)c2c(c(C)c1O)CC(CC(=O)CO)CO2 (configuration not stated)
inactive: [1] 93 % of control | [2] 100 % of control | [6] 93 % of control

O=C(/C=C\c1ccc([N+]([O-])=Nc2ccc(/C=C/C(=O)c3ccccc3)cc2)cc1)c1ccccc1
inactive: [3] 102 % of control | [4] 86 % of control | [5] 98 % of control

CCOC(=O)/C(C)=C(/N)c1ccccc1
inactive: endpoint: mean survival time, dose: 100.0 mg/kg/injection, schedule: Q04DX003 (ip), vehicle: saline with Tween-80 98 % of control | endpoint: mean survival time, dose: 200.0 mg/kg/injection, schedule: Q04DX003 (ip), vehicle: saline with Tween-80 95 % of control | endpoint: mean survival time, dose: 400.0 mg/kg/injection, schedule: Q04DX003 (ip), vehicle: saline with Tween-80 92 % of control

NC(=O)C1=C(N)CCC1
inactive: [1] 104 % of control | [2] 104 % of control | [6] 106 % of control

COc1cc2c(cc1O)N=C[C@@H]1CCC(O)N1C2=O (mixture of isomers)
inactive: endpoint: mean survival time, dose: 0.5 mg/kg/injection, schedule: Q01DX009 (ip), vehicle: saline 108 % of control | endpoint: mean survival time, dose: 1.0 mg/kg/injection, schedule: Q01DX009 (ip), vehicle: saline 102 % of control and 108 % of control | endpoint: mean survival time, dose: 2.0 mg/kg/injection, schedule: Q01DX009 (ip), vehicle: saline 118 % of control and 111 % of control | endpoint: mean survival time, dose: 4.0 mg/kg/injection, schedule: Q01DX009 (ip), vehicle: saline 113 % of control and 117 % of control | endpoint: mean survival time, dose: 8.0 mg/kg/injection, schedule: Q01DX009 (ip), vehicle: saline 106 % of control and 107 % of control | endpoint: median survival time, dose: 0.1 mg/kg/injection, schedule: Q01DX005 (ip), vehicle: saline 102 % of control | endpoint: median survival time, dose: 0.2 mg/kg/injection, schedule: Q01DX005 (ip), vehicle: saline 102 % of control | endpoint: median survival time, dose: 0.4 mg/kg/injection, schedule: Q01DX005 (ip), vehicle: saline 102 % of control | endpoint: median survival time, dose: 0.8 mg/kg/injection, schedule: Q01DX005 (ip), vehicle: saline 102 % of control | endpoint: median survival time, dose: 1.6 mg/kg/injection, schedule: Q01DX005 (ip), vehicle: saline 107 % of control
